The melting point is the temperature of the solid-liquid transition.

The text below walks through data of patent US20100197760A1, “DISUBSTITUTED PHENYLPYRROLIDINES AS MODULATORS OF CORTICAL CATECHOLAMINERGIC NEUROTRANSMISSION” (NSAB, FILIAL AF NEUROSEARCH SWEDEN AB, SVERIGE, priority 2007, published 2010).

The structures appear in SMILES notation. Where a name gives a salt, the structure may show the parent alone. Read-outs that look alike come from different tables or passages of the source.

The subject of series [1] is extracellular levels of dopamine, norepinephrine and serotonin in striatum and prefrontal cortex. The conditions noted are these: literature statement (Pliszka, 2005); cited from earlier work.
The subject of series [2] is DOPAC levels (3,4-dihydroxyphenylacetic acid) in the rat striatum. As to the kind of experiment: In vivo neurochemistry: tissue content of DOPAC in rat striatum. Set-up: species or system rat (male Sprague-Dawley). Conditions: 100 μmol/kg s.c., 60 min after administration, %-increase from control value. As to the method: The measurement of the tissue content of DOPAC is well established in the field of research since the 1960's. In short, male Sprague-Dawely rats are administered the test compound 60 minutes prior to decapitation. The brain is rapidly taken out and dissected. The striatum is rapidly frozen and subsequently quantitatively analysed with respect to its content of DOPAC by means of HPLC and electrochemical detection. The number of animals used for each test compound/vehicle is 4/group.
Male Sprague-Dawley rats weighing 220-320 g are used throughout the experiments. Sixty (60) minutes following administration of the test substance, the rats are decapitated. Directly after decapitation the brain is removed from the skull and put on a glass petri bowl filled with ice. The limbic system (containing the nucleus accumbens—both the core and shell, most parts of the olfactory tubercle and ventral pallidum) is dissected using two thin, angled tweezers and put directly on foil on dry ice (carbon dioxide −78° C.). The striatum and cortex are then dissected and also put on dry ice. The time from decapitation until the last tissue is dissected varies from four to six minutes. The tissue is weighed using a Sartorius BP3105 connected to a computer and packed in labelled tin foil, then stored in an −80° C. freezer. Great care is taken in order to keep the tissue frozen until the time of neurochemical analysis. Each brain part is subsequently analyzed with respect to its content of monoamines and their metabolites.
The monoamine transmitter substances (NE (norepinephrine), DA (dopamine), 5-HT (serotonin)) as well as their amine (NM (normethanephrine), 3-MT (3-methoxytyramine)) and acid (DOPAC (3,4-dihydroxyphenylacetic acid), 5-HIAA (5-hydroxyindoleacetic acid), HVA (homovanillic acid)) metabolites are quantified in brain tissue homogenates by HPLC separations and electrochemical detection.
The analytical method is based on two chromatographic separations dedicated for amines or acids. Two chromatographic systems share a common auto injector with a 10-port valve and two sample loops for simultaneous injection on the two systems. Both systems are equipped with a reverse phase column (Luna C18(2), dp 3 μm, 50*2 mm i.d., Phenomenex) and electrochemical detection is accomplished at two potentials on glassy carbon electrodes (MF-1000, Bioanalytical Systems, Inc.). The column effluent is passed via a T-connection to the detection cell or to a waste outlet. This is accomplished by two solenoid valves, which block either the waste or detector outlet. By preventing the chromatographic front from reaching the detector, better detection conditions are achieved. The aqueous mobile phase (0.4 ml/min) for the acid system contains citric acid 14 mM, sodium citrate 10 mM, MeOH 15% (v/v) and EDTA 0.1 mM. Detection potentials relative to Ag/AgCl reference are 0.45 and 0.60V. The aqueous ion pairing mobile phase (0.5 ml/min) for the amine system contains citric acid 5 mM, sodium citrate 10 mM, MeOH 9% (v/v), MeCN 10.5% (v/v), decane sulfonic acid 0.45 mM, and EDTA 0.1 mM. Detection potentials relative to Ag/AgCl reference are 0.45 and 0.65V.

Series [3] shares this test system. The conditions noted are these: 100 μmol/kg s.c., data taken from Table 2 in Ref 1 (J. Med. Chem. 1994, 37, 2735); cited from earlier work.
Series [4] deals with extracellular levels of dopamine, norepinephrine and serotonin in striatum and prefrontal cortex. As to the kind of experiment: In vivo microdialysis in awake, freely moving rats. Set-up: species or system rat (male Sprague-Dawley). Conditions: mirtazapine 10 mg/kg s.c. (FIGS. 21 and 22).

As for `CNCC[C@@H](Oc1ccccc1C)c1ccccc1` [atomoxetine], in series [1], the “cortical DA and NE levels” value is “regionally selective increases in cortical DA and NE”.

`CN1CCC(c2ccc(F)c(F)c2)C1` (stereo not drawn) (as salt: fumaric acid salt) [Example 4, 3-(3,4-DIFLUOROPHENYL)-1-METHYLPYRROLIDINE]: the melting point was 140 to 142 °C.

As for `Fc1ccc(C2CCNC2)cc1F` (stereo not drawn) [Example 5, 3-(3,4-DIFLUOROPHENYL)PYRROLIDINE], the DOPAC %-increase in series [2] is listed as −37%.

With `CCCN1CCC[C@@H](c2cccc(S(C)(=O)=O)c2)C1` [Example 16 of ref. 1], the DOPAC %-increase result in series [3] is listed as “+150^2%”.

Consider `CN1CCC(c2ccc(F)c(F)c2)C1` (stereo not drawn) [Example 4, 3-(3,4-DIFLUOROPHENYL)-1-METHYLPYRROLIDINE], for which the DOPAC %-increase in series [2] is −20%.

`Fc1ccc(C2CCNC2)cc1F` (stereo not drawn) (as salt: hydrochloric acid salt) [Example 5, 3-(3,4-DIFLUOROPHENYL)PYRROLIDINE] registered a melting point of 139 to 140 °C.

Take `CCCN1CCC(c2cc(F)cc(C(F)(F)F)c2)CC1` [Example 44 of WO01/46146, 4-(3-fluoro-5-trifluoromethyl-phenyl)-1-propyl-piperidine, reference compound]: the DOPAC %-increase entry in series [2] is “+239%”.

As to `Clc1ccc(C2CCNC2)cc1Cl` (stereo not drawn) [Example 1, 3-(3,4-DICHLOROPHENYL)PYRROLIDINE], the DOPAC %-increase in series [2] is −45%.

`Fc1ccc(C2CCNC2)c(F)c1` (stereo not drawn) (as salt: oxalic acid salt) [Example 2, 3-(2,4-DIFLUOROPHENYL)PYRROLIDINE] returned a melting point of 116 °C.

For `CCCN1CCC(c2ccc(Cl)c(C(F)(F)F)c2)CC1` [Example 9 of WO01/46146, 4-(4-chloro-3-trifluoromethyl-phenyl)-1-propyl-piperidine, reference compound], the DOPAC %-increase result in series [2] was “+94%”.

`CN1CCN2c3ncccc3Cc3ccccc3C2C1` (stereo not drawn) [mirtazapine]: in series [4], the “extracellular norepinephrine and dopamine, cortex versus striatum” value was “increase predominantly extracellular norepinephrine and dopamine in the cortex”.

With `Fc1cc(F)cc(C2CCNC2)c1` (stereo not drawn) [Example 3, 3-(3,5-DIFLUOROPHENYL)PYRROLIDINE], the DOPAC %-increase in series [2] is on record as −19%.

`Fc1ccc(C2CCNC2)c(F)c1` (stereo not drawn) [Example 2, 3-(2,4-DIFLUOROPHENYL)PYRROLIDINE]: the DOPAC %-increase in series [2] is listed as −22%.

On to `Fc1cc(F)cc(C2CCNC2)c1` (stereo not drawn) (as salt: oxalic acid salt) [Example 3, 3-(3,5-DIFLUOROPHENYL)PYRROLIDINE], for which the melting point lay in the range of 199 to 200 °C.

`Clc1ccc(C2CCNC2)cc1Cl` (stereo not drawn) (as salt: hydrochloric acid salt) [Example 1, 3-(3,4-DICHLOROPHENYL)PYRROLIDINE] yielded a melting point of 136 to 137 °C.
